Measurements as given in patent publication US20120101109A1, “ETHANOLAMINE SALT OF N- (3-METHOXY-5-METHYLPYRAZIN-2YL) -2- (4-[1, 3, 4-OXADIAZOLE-2-YL] PHENYL) PYRIDINE-3- SULPHONAMIDE” (ASTRAZENECA AB, priority 2005, published 2012).
Marks after values point to notes of the source that are not given here.

Assays:
[1] = Intrinsic dissolution rate, fibre optic UV probe with SOTAX dissolution apparatus; type: physicochemical; settings: pH 6.5 buffer, 37° C., 50 mg discs, UV at 260 nm, triplicate
Description: The intrinsic dissolution rate was determined by using a fibre optic UV probe, measuring at 260 nm, with a SOTAX dissolution apparatus. Each of the pots in the dissolution batch was filled with 500 ml of pH 6.5 buffer and heated to 37° C. 50 mg Of each compound was weighed out in triplicate. Each of these samples was placed into a 4 mm dye and compressed at 50 psi for 5 minutes to produce suitable discs. These discs were then placed into the dissolution bath and the UV absorbance measured at regular intervals. Standards were prepared at approximately 20 μg/ml concentrations in pH 6.5 buffer. Scans of the background and corresponding standards were taken and a standard recovery check was produced.

[2] = Stability of the salts on storage, assessed by NMR; settings: for stability of the salt: prolonged storage at ambient (400 MHz proton NMR), ammonium salt also vacuum drying at 50° C. overnight
[3] = Solubility of the salts in water, N-methylpyrrolidinone and IMS

SMILES | IDR (intrinsic dissolution rate) [1] | stability of the salt [2] | solubility in N-methylpyrrolidinone ([3]; N-methylpyrrolidinone) | solubility in water ([3]; water) | stability of the salt assessed by NMR ([2]; 2 days at 50° C.)
COc1nc(C)cnc1NS(=O)(=O)c1cccnc1-c1ccc(-c2nnco2)cc1.N [Compound (I) Ammonium Salt] | 0.14 mg/min/cm^2 | relatively unstable | is not | very water soluble | 
COc1nc(C)cnc1NS(=O)(=O)c1cccnc1-c1ccc(-c2nnco2)cc1.NCCO [Compound (I) Ethanolamine Salt] | 0.84 mg/min/cm^2 |  |  |  | stable
COc1nc(C)cnc1[N-]S(=O)(=O)c1cccnc1-c1ccc(-c2nnco2)cc1.[Na+] [Compound (I) Sodium Salt] | 1.37 ^a mg/min/cm^2 | very stable |  |  | 
COc1nc(C)cnc1NS(=O)(=O)c1cccnc1-c1ccc(-c2nnco2)cc1 [Compound (I), N-(3-methoxy-5-methylpyrazin-2-yl)-2-(4-[1,3,4-oxadiazol-2-yl]phenyl)pyridine-3-sulphonamide] | 0.05 mg/min/cm^2 |  |  |  | 
